From paper PMC7822874, “Chemoprotective antimalarials identified through quantitative high-throughput screening of Plasmodium blood and liver stage parasites” (Scientific Reports, 2021)
Several values for one entry are separate records, joined by “and”; a condition that tells them apart may be missing. Equal values may be shown once.

How the values were obtained:
[1] = test system: T1, Plasmodium falciparum Dd2-attB (parental line), asexual blood stages; experiment: microbe, parasite or virus in culture; set-up: replicate k of 3 (each line is one of three independent assays; the three lines of one compound and parasite line follow each other); conditions: n = 1; for Individual replicates / Log AC50 (M): 72 h; for AC50: Plasmodium falciparum, DD2, 72 h, read-out: Individual replicates / Log AC50 (converted)
T1 construct: Dd2-attB, the isogenic parental line
Summary of the method: (§1)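 Three independent runs, compound subset only; parental vs ScDHODH line compared by two-sided Student's t-test.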

[2] = test system: T2, Plasmodium falciparum Dd2-attB-ScDHODH (transgenic line expressing yeast DHODH), asexual blood stages; experiment: organism not typed; set-up: replicate k of 3 (each line is one of three independent assays; the three lines of one compound and parasite line follow each other)
T2 construct: Dd2-attB-ScDHODH, the transgenic line that expresses yeast DHODH
Summary of the method: as §1

[3] = 72 h; n = 1; read-out: Individual replicates / Log AC50 (converted)

| SMILES | Individual replicates / Log AC50 (M) [1] | AC50 [1] [µM] | Individual replicates / Log AC50 (M) ([2]; 72 h, n = 1) | AC50 [2, 3] [µM] | Individual replicates / Log AC50 (M) ([2]; 72 h; n = 1) |
| --- | --- | --- | --- | --- | --- |
| CCOc1ccc(NC(=O)c2c(NCc3cccnc3)sc3c2CCCC3)cc1 [NCGC00140582-02] | -5.3486 Log AC50 (M) and -5.2986 Log AC50 (M) | 5.64 | -5.2486 Log AC50 (M) and -5.1486 Log AC50 (M) | 6.33 |  |
| O=C(O)c1ccnc(-n2ncc(C(OCCN3CCCCC3)c3cccc(-c4ccccc4)c3)c2-c2cccc(-c3ccccc3)c2)c1 (centres unmarked) [NCGC00487052-01] | -5.3986 Log AC50 (M) | 4.48 | -5.4986 Log AC50 (M) and -5.2986 Log AC50 (M) (2×) |  |  |
| Cn1cnc(-c2nccc3c(O)nc(OCCCC(F)(F)F)nc23)c1 [NCGC00381768-01] | -4.7486 Log AC50 (M) and -4.7986 Log AC50 (M) | 15.9 |  | 17.8 | -4.7486 Log AC50 (M) |
| COC(=O)c1ccnc2cc(C(OCCC3CCCCC3)c3ccccc3Cl)[nH]c12 (centres unmarked) [NCGC00421833-01] | -4.7986 Log AC50 (M) and -4.7486 Log AC50 (M) | 15.9 | -4.7486 Log AC50 (M) and -4.7986 Log AC50 (M) | 17.8 |  |
| O=C(NCCCN1CCCC1)c1cccc(-c2cc(O)c3ncccc3c2)c1 [NCGC00247742-01] | -4.7986 Log AC50 (M) | 17.8 |  | 17.8 | -4.7486 Log AC50 (M) |
| N[C@H]1CCN(c2cnc3c(O)ccc(C(=O)O)c3c2)C1 [NCGC00241041-01] |  | 14.2 |  | 15.9 |  |
| Oc1cc(-c2ccc(CN3CCOCC3)c(F)c2)cc2cccnc12 [NCGC00247756-01] | -5.2986 Log AC50 (M) | 5.03 | -5.2986 Log AC50 (M) and -5.2486 Log AC50 (M) | 5.03 |  |
| O=C(NC1=CC(=O)c2ccccc2C1=O)c1ccccc1 [NCGC00357425-01] | -5.5986 Log AC50 (M) and -5.7986 Log AC50 (M) and -5.3486 Log AC50 (M) |  | -5.6486 Log AC50 (M) (2×) and -5.2986 Log AC50 (M) |  |  |
| Cc1ccc(CN2CCN(c3cnc4c(O)ccc(C(=O)O)c4c3)CC2)cc1 [NCGC00249379-01] | -4.7986 Log AC50 (M) | 17.8 | -4.8486 Log AC50 (M) and -4.7486 Log AC50 (M) | 15.9 |  |
| COc1ccc(-c2c(-c3cc(N)ccn3)ncn2C)cc1 [NCGC00421914-01] | -4.7986 Log AC50 (M) and -4.9486 Log AC50 (M) | 14.2 | -4.9986 Log AC50 (M) | 12.6 |  |
| CCOC(=O)CCNc1cc(N2CCc3ccccc3CC2)nc(-c2cccnc2)n1 [NCGC00351550-01] | -4.8986 Log AC50 (M) | 14.2 | -4.7986 Log AC50 (M) |  |  |
| Oc1ccc(CCc2c(F)cccc2F)c2cccnc12 [NCGC00184906-01] | -5.2486 Log AC50 (M) and -5.2986 Log AC50 (M) | 5.64 | -5.0486 Log AC50 (M) and -5.1486 Log AC50 (M) | 6.33 |  |
| CCc1nc2c(sc3nc4c(cc32)COC(C)(C)C4)c(=O)n1Cc1ccco1 [NCGC00053301-03] |  | 17.8 |  | 10 |  |
| CCCCOC(=O)c1ccnc2cc(C(=O)N(CCN(C)C)c3ccccc3)sc12 [NCGC00481684-01] | -4.7986 Log AC50 (M) | 17.8 |  | 14.2 |  |
| Cc1ccnc(NCc2ccc(O)c3ncccc23)c1 [NCGC00241032-01] | -4.8486 Log AC50 (M) and -4.7486 Log AC50 (M) | 17.8 | -5.0486 Log AC50 (M) | 14.2 |  |
| O=C(O)c1ccc(O)c2ncc(N3CCCN(C4CCCC4)CC3)cc12 [NCGC00241765-01] | -4.7486 Log AC50 (M) | 17.8 | -4.7486 Log AC50 (M) and -4.6986 Log AC50 (M) | 20 |  |

| SMILES | Individual replicates / Log AC50 (M) [1] | AC50 [1] [µM] | Individual replicates / Log AC50 (M) ([2]; 72 h, n = 1) | AC50 [2, 3] [µM] | Individual replicates / Log AC50 (M) ([2]; 72 h; n = 1) |
| --- | --- | --- | --- | --- | --- |
| COC(=O)c1ccc(O)c2ncc(N3CCOCC3)cc12 [NCGC00262492-01] | -5.3486 Log AC50 (M) and -5.3986 Log AC50 (M) | 5.64 | -5.2986 Log AC50 (M) | 5.64 |  |
| COC(=O)c1ccc(O)c2ncc(N(C)C)cc12 [NCGC00189506-01] | -5.0986 Log AC50 (M) and -5.1486 Log AC50 (M) | 7.97 | -5.0486 Log AC50 (M) | 14.2 |  |
| N#CNC(=O)c1ccnc2cc(C(OCCN3CCCCC3)c3ccccc3Cl)sc12 (centres unmarked) [NCGC00483126-01] | -4.8986 Log AC50 (M) and -4.7486 Log AC50 (M) | 14.2 | -4.7986 Log AC50 (M) | 15.9 |  |
| CN1CCN(C2CCN(Cc3ccc(O)c4ncccc34)CC2)CC1 [NCGC00183373-01] |  | 17.8 |  | 15.9 |  |
| Oc1ccc(Nc2ccccc2F)c2cccnc12 [NCGC00184886-01] | -5.6486 Log AC50 (M) and -5.5486 Log AC50 (M) | 3.56 | -5.5986 Log AC50 (M) | 4.48 |  |
| c1ccc(CCn2nc(-c3ccccn3)nc2CCCN2CCCCC2)cc1 [NCGC00389173-01] | -5.2986 Log AC50 (M) and -5.0986 Log AC50 (M) and -5.4486 Log AC50 (M) |  | -5.2486 Log AC50 (M) and -5.3986 Log AC50 (M) and -5.0486 Log AC50 (M) |  |  |
| CCCCOC(=O)c1ccnc2cc(C(OCCN3CCCCC3)c3ccccc3C)sc12 (centres unmarked) [NCGC00481621-01] | -5.0986 Log AC50 (M) and -5.0486 Log AC50 (M) | 8.94 | -4.7986 Log AC50 (M) | 14.2 |  |
| COc1ccc(NCc2ccc(O)c3ncccc23)nc1 [NCGC00241022-01] | -4.8486 Log AC50 (M) | 20 | -4.9486 Log AC50 (M) | 11.3 |  |
| O=C(c1cccc(-c2cc(O)c3ncccc3c2)c1)N1CCOCC1 [NCGC00244534-01] | -5.0486 Log AC50 (M) and -5.0986 Log AC50 (M) | 12.6 | -5.0486 Log AC50 (M) | 14.2 |  |
| CN1CCN(Cc2cc(COCc3ccccc3)c3cccnc3c2O)CC1 [NCGC00052276-02] | -5.1986 Log AC50 (M) and -5.0486 Log AC50 (M) | 5.03 | -5.2986 Log AC50 (M) (2×) and -4.9486 Log AC50 (M) |  |  |
| CCOC(=O)c1ccnc2cc(C(OCCN3CCCCC3)c3ccccc3Cl)sc12 (centres unmarked) [NCGC00481512-01] | -5.1486 Log AC50 (M) | 5.64 | -5.1986 Log AC50 (M) and -5.0986 Log AC50 (M) | 7.97 |  |
| CC(Cc1cnccn1)Nc1cnc2c(O)ccc(C(=O)O)c2c1 (centres unmarked) [NCGC00241766-01] | -4.8486 Log AC50 (M) | 15.9 |  | 7.97 |  |
| COC(=O)c1ccc(O)c2ncc(-c3ccc(C(=O)N4CCN(C)CC4)cc3)cc12 [NCGC00189505-01] | -5.2486 Log AC50 (M) and -5.0486 Log AC50 (M) | 5.03 | -4.8986 Log AC50 (M) and -5.1486 Log AC50 (M) | 6.33 |  |
| CN1CCN(CCCNC(=O)c2cccc(-c3cc(O)c4ncccc4c3)c2)CC1 [NCGC00247740-01] | -4.7986 Log AC50 (M) and -4.7486 Log AC50 (M) | 15.9 | -4.7486 Log AC50 (M) and -4.7986 Log AC50 (M) | 17.8 |  |
| CCCCOC(=O)c1ccnc2cc(-c3nc4ccccc4[nH]3)sc12 [NCGC00482448-01] | -5.7486 Log AC50 (M) and -5.6986 Log AC50 (M) | 2 | -5.5986 Log AC50 (M) and -5.6986 Log AC50 (M) | 2 |  |
| COc1ccnc(NCc2ccc(O)c3ncccc23)c1 [NCGC00241023-01] | -4.7986 Log AC50 (M) | 15.9 |  | 12.6 | -4.8986 Log AC50 (M) |
